# Experimental data taken from patent US12552783B2, “Modulators of proteolysis and associated methods of use” (Arvinas Operations, Inc., priority 2018, dated 2026).
# Target: KRas (Homo sapiens, UniProt P01116, G12C)
# Test: KRas degradation in NCI-H2030 cells by Western blot, normalized to GAPDH (data of Table 14)
# Format: cell-based
# Set-up: host or cells: NCI-H2030
# Details: for Dmax: NCI-H2030
# Experimental: Cell Lines, Antibodies, and Reagents. NCI-H2030 (CRL-5914) and SW1573 (CRL-2170) cells were purchased from ATCC. Both cell lines are homozygous for the G12C mutation in KRas. NCI-H2030 cells were cultured in RPMI-1640 medium containing 1% penicillin-streptomycin and 10% fetal bovine serum (FBS). SW1573 cells were cultured in DMEM containing 1% penicillin-streptomycin and 10% FBS. The KRas detection antibody (Cat. No. LS-C175665) was purchased from LifeSpan Biosciences and was used at a dilution of 1:2000. GAPDH was detected using an antibody purchased from Cell Signaling Technology (Cat. No. 5174) and was diluted 1:3000. Secondary anti-mouse and anti-rabbit detection antibodies were purchased from Cell Signaling Technology (Cat. Nos. 7076 and 7074, respectively).
# Compound Treatment and Western Blotting of the Data of Table 14. Either NCI-H2030 or SW1573 cells were plated in 12-well plates and allowed to adhere overnight at 37° C. in an incubator containing 5% CO2. The following day, the medium was replaced with the appropriate medium lacking FBS to induce starvation. Cells were returned to the incubator for an additional 24 hours following media exchange. […] Cells were treated with VHL-based compounds for 24 hours and all other compounds for 72 hours. Following treatment, cells were lysed in RIPA buffer (Thermo Fisher Cat. No. 89900) containing phosphatase (Thermo Fisher Cat. No. 1861277) and protease (Thermo Fisher Cat. No. 78429) inhibitor cocktails. Lysates were cleared at 13,000 rpm for 15 minutes and supernatants were assayed for total protein concentration using the Pierce BCA assay system (Thermo Fisher Cat. No. 23225). For each sample, 10 μg total protein was resolved on a 12% Bis-Tris gel and then transferred to a nitrocellulose membrane. After blocking in 3% BSA in TBST (Tris-buffered Saline with 0.1% Tween-20) for 1 hour at room temperature, membranes were probed with the primary antibody (LS Bio Cat. No. LS-C175665) overnight at 4° C. After incubation with the secondary antibody, the following day membranes were visualized using the SuperSignal™ West Femto substrate (Thermo Fisher Cat. No. 34095). The KRas signal in each lane was normalized to GAPDH and percent degradation was either estimated as less than 25% by visual inspection (C in Table 13) or quantitated relative to the DMSO control lane using BIO-RAD Image Lab 5.2.1, and all data was plotted using GraphPad PRISM 6.07.
# DC50 is the half-maximal degradation concentration—i.e., the concentration at which 50% degradation is observed. DMax is the maximum degradation efficacy is achieved—i.e., the maximal degradation observed) degradation data.
Structure (SMILES),"Percent Degradation at Indicated Concentration (μM) (H2030, 0.3 μM)","Percent Degradation at Indicated Concentration (μM) (H2030, 1 μM)","Percent Degradation at Indicated Concentration (μM) (H2030, 3 μM)",Dmax [%],"Percent Degradation at Indicated Concentration (μM) (H2030 cells, 0.3 μM)","Percent Degradation at Indicated Concentration (μM) (H2030 cells, 1 μM)","Percent Degradation at Indicated Concentration (μM) (H2030 cells, 3 μM)",Dmax (H2030 cells) [%]
"C=CC(=O)N1CCN(c2nc(NCCC(=O)N(C)CCOCCOCCOCCOCCOCC(=O)N[C@H](C(=O)N3C[C@H](O)C[C@H]3C(=O)N[C@@H](C)c3ccc(-c4scnc4C)cc3)C(C)(C)C)nc3c(F)c(-c4c(O)cccc4F)c(Cl)cc23)CC1 (atropisomer, axis not shown) [compound 213, (2S,4R)-1-((S)-24-(((S)-4-(4-acryloylpiperazin-1-yl)-6-chloro-8-fluoro-7-(2-fluoro-6-hydroxyphenyl)quinazolin-2-yl)amino)-2-(tert-butyl)-21-methyl-4,22-dioxo-6,9,12,15,18-pentaoxa-3,21-diazatetracosanoyl)-4-hydroxy-N-((S)-1-(4-(4-methylthiazol-5-yl)phenyl)ethyl)pyrrolidine-2-carboxamide]",,,C (Percent Degradation: C ≤ 35),,,,,
"Cc1ncsc1-c1ccc([C@H](C)NC(=O)[C@@H]2C[C@@H](O)CN2C(=O)[C@@H](NC(=O)COCCN(C)C(=O)CCNc2nc(N3CCN(C(=O)C(O)O)CC3)c3cc(Cl)c(-c4c(O)cccc4F)c(F)c3n2)C(C)(C)C)cc1 (atropisomer, axis not shown) [compound 234, (2S,4R)-1-((S)-2-(2-(2-(3-(((S)-6-chloro-4-(4-(2,2-dihydroxyacetyl)piperazin-1-yl)-8-fluoro-7-(2-fluoro-6-hydroxyphenyl)quinazolin-2-yl)amino)-N-methylpropanamido)ethoxy)acetamido)-3,3-dimethylbutanoyl)-4-hydroxy-N-((S)-1-(4-(4-methylthiazol-5-yl)phenyl)ethyl)pyrrolidine-2-carboxamide]",C (Percent Degradation: C ≤ 35),C (Percent Degradation: C ≤ 35),C (Percent Degradation: C ≤ 35),≤ 35,,,,
"Cc1ncsc1-c1ccc([C@H](C)NC(=O)[C@@H]2C[C@@H](O)CN2C(=O)[C@@H](NC(=O)COCCOCCN(C)C(=O)CCNc2nc(N3CCN(C(=O)C(O)O)CC3)c3cc(Cl)c(-c4c(O)cccc4F)c(F)c3n2)C(C)(C)C)cc1 (atropisomer, axis not shown) [compound 236, (2S,4R)-1-((S)-2-(tert-butyl)-15-(((S)-6-chloro-4-(4-(2,2-dihydroxyacetyl)piperazin-1-yl)-8-fluoro-7-(2-fluoro-6-hydroxyphenyl)quinazolin-2-yl)amino)-12-methyl-4,13-dioxo-6,9-dioxa-3,12-diazapentadecanoyl)-4-hydroxy-N-((S)-1-(4-(4-methylthiazol-5-yl)phenyl)ethyl)pyrrolidine-2-carboxamide]",,,C (Percent Degradation: C ≤ 35),,,,,
"Cc1ncsc1-c1ccc([C@H](C)NC(=O)[C@@H]2C[C@@H](O)CN2C(=O)[C@@H](NC(=O)COCCOCCN(C)C(=O)CCNc2nc(N3CCN(C(=O)C(O)O)CC3)c3cc(Cl)c(-c4c(O)cccc4F)c(F)c3n2)C(C)(C)C)cc1 (atropisomer, axis not shown) [compound 237, (2S,4R)-1-((S)-2-(tert-butyl)-15-(((R)-6-chloro-4-(4-(2,2-dihydroxyacetyl)piperazin-1-yl)-8-fluoro-7-(2-fluoro-6-hydroxyphenyl)quinazolin-2-yl)amino)-12-methyl-4,13-dioxo-6,9-dioxa-3,12-diazapentadecanoyl)-4-hydroxy-N-((S)-1-(4-(4-methylthiazol-5-yl)phenyl)ethyl)pyrrolidine-2-carboxamide]",C (Percent Degradation: C ≤ 35),C (Percent Degradation: C ≤ 35),C (Percent Degradation: C ≤ 35),≤ 35,,,,
"Cc1ncsc1-c1ccc([C@H](C)NC(=O)[C@@H]2C[C@@H](O)CN2C(=O)[C@@H](NC(=O)COCCOCCOCCN(C)C(=O)CCNc2nc(N3CCN(C(=O)C(O)O)CC3)c3cc(Cl)c(-c4c(O)cccc4F)c(F)c3n2)C(C)(C)C)cc1 (atropisomer, axis not shown) [compound 239, (2S4R)-1-((S)-2-(tert-butyl)-18-((6-chloro-4-(4-(2,2-dihydroxyacetyl)piperazin-1-yl)-8-fluoro-7-((R)-2-fluoro-6-hydroxyphenyl)quinazolin-2-yl)amino)-15-methyl-4,16-dioxo-6,9,12-trioxa-3,15-diazaoctadecanoyl)-4-hydroxy-N-((S)-1-(4-(4-methylthiazol-5-yl)phenyl)ethyl)pyrrolidine-2-carboxamide,]",,,,,C (Percent Degradation: C ≤ 35),C (Percent Degradation: C ≤ 35),C (Percent Degradation: C ≤ 35),≤ 35

# More lines, now with the values ahead:
"Percent Degradation at Indicated Concentration (μM) (H2030, 0.3 μM)","Percent Degradation at Indicated Concentration (μM) (H2030, 1 μM)","Percent Degradation at Indicated Concentration (μM) (H2030, 3 μM)",Dmax [%],"Percent Degradation at Indicated Concentration (μM) (H2030 cells, 0.3 μM)","Percent Degradation at Indicated Concentration (μM) (H2030 cells, 1 μM)","Percent Degradation at Indicated Concentration (μM) (H2030 cells, 3 μM)",Dmax (H2030 cells) [%],Structure (SMILES)
C (Percent Degradation: C ≤ 35),C (Percent Degradation: C ≤ 35),C (Percent Degradation: C ≤ 35),≤ 35,,,,,"C=CC(=O)N1CCN(c2nc(NCCC(=O)N(C)CCOCCOCCOCCOCC(=O)N[C@H](C(=O)N3C[C@H](O)C[C@H]3C(=O)N[C@@H](C)c3ccc(-c4scnc4C)cc3)C(C)(C)C)nc3c(F)c(-c4c(O)cccc4F)c(Cl)cc23)CC1 (atropisomer, axis not shown) [compound 212, (2S,4R)-1-((S)-21-(((R)-4-(4-acryloylpiperazin-1-yl)-6-chloro-8-fluoro-7-(2-fluoro-6-hydroxyphenyl)quinazolin-2-yl)amino)-2-(tert-butyl)-18-methyl-4,19-dioxo-6,9,12,15-tetraoxa-3,18-diazahenicosanoyl)-4-hydroxy-N-((S)-1-(4-(4-methylthiazol-5-yl)phenyl)ethyl)pyrrolidine-2-carboxamide]"
C (Percent Degradation: C ≤ 35),C (Percent Degradation: C ≤ 35),C (Percent Degradation: C ≤ 35),≤ 35,,,,,"Cc1ncsc1-c1ccc([C@H](C)NC(=O)[C@@H]2C[C@@H](O)CN2C(=O)[C@@H](NC(=O)COCCOCCN(C)C(=O)CCNc2nc(N3CCN(C(N)=O)CC3)c3cc(Cl)c(-c4c(O)cccc4F)c(F)c3n2)C(C)(C)C)cc1 (atropisomer, axis not shown) [compound 227, 4-((S)-6-chloro-8-fluoro-7-(2-fluoro-6-hydroxyphenyl)-2-(((S)-14-((2S,4R)-4-hydroxy-2-(((S)-1-(4-(4-methylthiazol-5-yl)phenyl)ethyl)carbamoyl)pyrrolidine-1-carbonyl)-4,15,15-trimethyl-3,12-dioxo-7,10-dioxa-4,13-diazahexadecyl)amino)quinazolin-4-yl)piperazine-1-carboxamide]"
,,,,C (Percent Degradation: C ≤ 35),C (Percent Degradation: C ≤ 35),C (Percent Degradation: C ≤ 35),,"Cc1ncsc1-c1ccc([C@H](C)NC(=O)[C@@H]2C[C@@H](O)CN2C(=O)[C@@H](NC(=O)COCCN(C)C(=O)CCNc2nc(N3CCN(C(=O)C(O)O)CC3)c3cc(Cl)c(-c4c(O)cccc4F)c(F)c3n2)C(C)(C)C)cc1 (atropisomer, axis not shown) [compound 235, (2S,4R)-1-((S)-2-(2-(2-(3-(((R)-6-chloro-4-(4-(2,2-dihydroxyacetyl)piperazin-1-yl)-8-fluoro-7-(2-fluoro-6-hydroxyphenyl)quinazolin-2-yl)amino)-N-methylpropanamido)ethoxy)acetamido)-3,3-dimethylbutanoyl)-4-hydroxy-N-((S)-1-(4-(4-methylthiazol-5-yl)phenyl)ethyl)pyrrolidine-2-carboxamide]"
,,,,,,C (Percent Degradation: C ≤ 35),,"Cc1ncsc1-c1ccc([C@H](C)NC(=O)[C@@H]2C[C@@H](O)CN2C(=O)[C@@H](NC(=O)COCCOCCOCCN(C)C(=O)CCNc2nc(N3CCN(C(=O)C(O)O)CC3)c3cc(Cl)c(-c4c(O)cccc4F)c(F)c3n2)C(C)(C)C)cc1 (atropisomer, axis not shown) [compound 238, (2S,4R)-1-((S)-2-(tert-butyl)-18-((6-chloro-4-(4-(2,2-dihydroxyacetyl)piperazin-1-yl)-8-fluoro-7-((S)-2-fluoro-6-hydroxyphenyl)quinazolin-2-yl)amino)-15-methyl-4,16-dioxo-6,9,12-trioxa-3,15-diazaoctadecanoyl)-4-hydroxy-N-((S)-1-(4-(4-methylthiazol-5-yl)phenyl)ethyl)pyrrolidine-2-carboxamide]"
